Source: article PMC9020739, “Identification of a two-component regulatory system involved in antimicrobial peptide resistance in Streptococcus pneumoniae” (PLoS Pathogens, 2022)
Where a SMILES comes first, the peptide text is derived from it. Bridges are numbered along the chain shown (N, C = ends). [ ]: non-standard residue; d: D form. The star is where a group is joined. Ileψ(thiazoline)Cys = CC[C@H](C)[C@H](N)C1=N[C@H](C(=O)*)CS1; dOrn = NCCC[C@@H](N)C(=O)O

Key:
[1] = tested on: protein levels in R6 Δtcs01 strain; assay: Quantitative proteomics (TMT labeling, LC-MS/MS); assay type: cell-based, Streptococcus pneumoniae
Procedure: (§1) In experiments 1 and 2, we analyzed the R6 WT and R6 Δtcs01 strains treated or not with 1 μg/mL of bacitracin. In experiment 3, we analyzed the R800-Δhk01-PcomX-rr01-hk01 strain treated with either 1 μg/mL or 32 μg/mL of bacitracin.
(§2) Strains were grown in 50 mL of THY medium at 37°C without agitation and in anaerobic conditions until the absorbance reaches approximatively 0.3. After the addition of bacitracin (final concentrations of 1 or 32 μg/mL), the bacterial cultures were incubated for 45 min at 37°C with a slight mechanical agitation (60 rpm). Then, the cell density was adjusted to an OD600nm = 0.8 in 10 mL. After centrifugation at 4,000 x g for 10 min at 4°C, the pellets were resuspended with 1 mL of cold Tris-HCl 50 mM pH 7.5 and centrifuged at 10,000 x g, for 5 min at 4°C. The pellets were harvested and treated in the same conditions than previously. The contents were transferred into Eppendorf low-binding tubes. After a last centrifugation at 10,000 x g for 5 min at 4°C, the bacterial pellets were stored at -80°C. […] The proteins were quantified by using BCA assay kit (Thermo Scientific) before sending the samples to mass spectrometry analysis.
(§3) To compare the proteins abundance between the different conditions/samples, we used a multiplexed quantitation method after labeling by isobaric Tandem Mass Tags (TMT). […]
(§4) We simultaneously compared 6 TMT samples within the same experiment. In the experiment 1 we analyzed one sixplex containing R6 WT, R6 WT+ Bacitracin 1, R6 WT+ Bacitracin 2, R6 ΔTCS, R6 ΔTCS+ Bacitracin 1, R6 ΔTCS+ Bacitracin 2 labeled with reporter ions 126, 127, 128, 129, 130 and 131, respectively; and experiment 2 is a second sixplex containing R6 WT1, R6 WT2, R6 WT+ Bacitracin, R6 ΔTCS1, R6 ΔTCS2, R6 ΔTCS+ Bacitracin labeled with reporter ions 126, 127, 128, 129, 130 and 131, respectively. The calculated ratios shown in Figs 5 and S5 are: experiment 1: R6 WT+ Bacitracin (1/2)/R6WT and R6 WT+ Bacitracin (1/2)/ R6 ΔTCS+ Bacitracin (1/2); experiment 2: R6 WT+ Bacitracin /R6WT (1/2) and R6 WT+ Bacitracin/ R6 ΔTCS+ Bacitracin. […]

[2] = tested on: BceAB protein levels in R6 WT strain; assay: Quantitative proteomics (TMT labeling, LC-MS/MS); assay type: cell-based, Streptococcus pneumoniae; settings: R6 wild-type, bacitracin 1 μg/ml for 45 min versus untreated
Procedure: as §1, §2, §3, §4

Q: Which results are given for `CC[C@H](C)[C@H](N)C1=N[C@H](C(=O)N[C@@H](CC(C)C)C(=O)N[C@H](CCC(=O)O)C(=O)N[C@H](C(=O)N[C@H]2CCCCNC(=O)[C@H](CC(N)=O)NC(=O)[C@@H](CC(=O)O)NC(=O)[C@H](Cc3cnc[nH]3)NC(=O)[C@@H](Cc3ccccc3)NC(=O)[C@H]([C@@H](C)CC)NC(=O)[C@@H](CCCN)NC2=O)[C@@H](C)CC)CS1` [bacitracin] ({Ileψ(thiazoline)Cys}-L[dE]IK[dOrn]I[dF]H[dD]N; lactam 4-C (inferred); N-terminus assumed)?
A: BceAB protein levels upon treatment ([1]; R6 Δtcs01, bacitracin 1 μg/ml for 45 min versus untreated, average): 0.99 ± 0.09 fold; Abundance of LiaS upon treatment ([1]; R6 Δtcs01 treated with bacitracin, TMT proteomics): increased by two-fold; Accumulation of BceAB upon treatment [2]: 7 ± 3 fold
